Assay results reported in PubChem BioAssay AID1259407 (Chemical Carcinogenesis Research Information System (CCRIS), 2018).
The source made the active and inactive calls. No rule for the calls is given here.

Tested on: CCRIS mutagenicity, Ames/micronucleus/aberration tests
Experiment: CCRIS mutagenicity studies
[1] = Test System: AMES SALMONELLA TYPHIMURIUM, Strain/Indicator: TA100, Metabolic Activation: NONE, Method: PREINCUBATION
[2] = Test System: AMES SALMONELLA TYPHIMURIUM, Strain/Indicator: TA100, Metabolic Activation: NONE, Method: STANDARD PLATE
[3] = Test System: AMES SALMONELLA TYPHIMURIUM, Strain/Indicator: TA100, Metabolic Activation: RAT, LIVER, S-9, AROCLOR 1254, Method: STANDARD PLATE
[4] = Test System: AMES SALMONELLA TYPHIMURIUM, Strain/Indicator: TA98, Metabolic Activation: NONE, Method: STANDARD PLATE

In the case of `CN(C)N`, the mutagenic call (End Point: IN VITRO CHROMOSOMAL ABERRATIONS, Test System: CHL CELLS, Metabolic Activation: NONE) is reported as “active; positive (structural changes)”, the mutagenic call (End Point: IN VITRO CHROMOSOMAL ABERRATIONS, Test System: CHL CELLS, Metabolic Activation: RAT, LIVER, S-9, SODIUM PHENOBARBITAL AND 5,6-BENZOFLAVONE) is reported as “active; positive (structural changes)” and the mutagenic call (Test System: AMES SALMONELLA TYPHIMURIUM, Strain/Indicator: TA98, Metabolic Activation: NONE, Method: PREINCUBATION) is reported as “inactive; negative”. The mutagenic call (Test System: AMES SALMONELLA TYPHIMURIUM, Strain/Indicator: TA98, Metabolic Activation: RAT LIVER S-9, PHENOBARBITAL AND BETA-NAPHTHOFLAVONE, Method: PREINCUBATION) was “inactive; negative”, the mutagenic call [1] was “inactive; negative” and the mutagenic call [2] was “inactive; negative”. For the same molecule, the mutagenic call (Test System: AMES SALMONELLA TYPHIMURIUM, Strain/Indicator: TA100, Metabolic Activation: RAT LIVER S-9, PHENOBARBITAL AND BETA-NAPHTHOFLAVONE, Method: PREINCUBATION) was “inactive; negative”, the mutagenic call (Test System: AMES SALMONELLA TYPHIMURIUM, Strain/Indicator: TA100, Metabolic Activation: RAT, LIVER, S-9, AROCLOR 1254 (1 OR 2 MG), Method: STANDARD PLATE) was “inactive; negative” and the mutagenic call [3] was “inactive; negative”. The mutagenic call (Test System: AMES SALMONELLA TYPHIMURIUM, Strain/Indicator: TA102, Metabolic Activation: NONE, Method: PREINCUBATION) was “inactive; negative”, the mutagenic call (Test System: AMES SALMONELLA TYPHIMURIUM, Strain/Indicator: TA102, Metabolic Activation: NONE, Method: STANDARD PLATE) was “inactive; negative” and the mutagenic call (Test System: AMES SALMONELLA TYPHIMURIUM, Strain/Indicator: TA102, Metabolic Activation: RAT LIVER S-9, PHENOBARBITAL AND BETA-NAPHTHOFLAVONE, Method: PREINCUBATION) was “inactive; negative”. The mutagenic call (Test System: AMES SALMONELLA TYPHIMURIUM, Strain/Indicator: TA102, Metabolic Activation: RAT, LIVER, S-9, AROCLOR 1254 (1 OR 2 MG), Method: STANDARD PLATE) was “inactive; negative”, the mutagenic call (Test System: AMES SALMONELLA TYPHIMURIUM, Strain/Indicator: TA102, Metabolic Activation: RAT, LIVER, S-9, AROCLOR 1254, Method: STANDARD PLATE) was “inactive; negative” and the mutagenic call (Test System: AMES SALMONELLA TYPHIMURIUM, Strain/Indicator: TA104, Metabolic Activation: NONE, Method: PREINCUBATION) was “inactive; negative”. For the same molecule, the mutagenic call (Test System: AMES SALMONELLA TYPHIMURIUM, Strain/Indicator: TA104, Metabolic Activation: RAT LIVER S-9, PHENOBARBITAL AND BETA-NAPHTHOFLAVONE, Method: PREINCUBATION) was “inactive; negative”, the mutagenic call (Test System: AMES SALMONELLA TYPHIMURIUM, Strain/Indicator: TA1530, Metabolic Activation: NONE, Method: STANDARD PLATE) was “active; positive” and the mutagenic call (Test System: AMES SALMONELLA TYPHIMURIUM, Strain/Indicator: TA1535, Metabolic Activation: NONE, Method: PREINCUBATION) was “inactive; negative”. The mutagenic call (Test System: AMES SALMONELLA TYPHIMURIUM, Strain/Indicator: TA1535, Metabolic Activation: RAT LIVER S-9, PHENOBARBITAL AND BETA-NAPHTHOFLAVONE, Method: PREINCUBATION) was “inactive; negative”, the mutagenic call (Test System: AMES SALMONELLA TYPHIMURIUM, Strain/Indicator: TA1535, Metabolic Activation: RAT, LIVER, S-9, AROCLOR 1254, Method: PREINCUBATION) was “inactive; negative” and the mutagenic call (Test System: AMES SALMONELLA TYPHIMURIUM, Strain/Indicator: TA1537, Metabolic Activation: RAT LIVER S-9, PHENOBARBITAL AND BETA-NAPHTHOFLAVONE, Method: PREINCUBATION) was “inactive; negative”. The mutagenic call (Test System: AMES SALMONELLA TYPHIMURIUM, Strain/Indicator: TA1537, Metabolic Activation: RAT, LIVER, S-9, AROCLOR 1254, Method: PREINCUBATION) was “inactive; negative”, the mutagenic call (Test System: AMES SALMONELLA TYPHIMURIUM, Strain/Indicator: TA2638, Metabolic Activation: NONE, Method: STANDARD PLATE) was “active; positive” and the mutagenic call (Test System: E. COLI, Strain/Indicator: WP2 (PKM101), Metabolic Activation: NONE, Method: STANDARD PLATE) was “active; positive”. For the same molecule, the mutagenic call (Test System: E. COLI, Strain/Indicator: WP2 UVRA (PKM101), Metabolic Activation: NONE, Method: STANDARD PLATE) was “active; positive”, the mutagenic call (Test System: E.COLI, Strain/Indicator: WP2UVRA/PKM101, Metabolic Activation: NONE, Method: PREINCUBATION) was “inactive; negative” and the mutagenic call (Test System: E.COLI, Strain/Indicator: WP2UVRA/PKM101, Metabolic Activation: RAT LIVER S-9, PHENOBARBITAL AND BETA-NAPHTHOFLAVONE, Method: PREINCUBATION) was “inactive; negative”. The mutagenic call (Test System: E.COLI, Strain/Indicator: WP2UVRA, Metabolic Activation: NONE, Method: PREINCUBATION) was “inactive; negative” and the mutagenic call (Test System: E.COLI, Strain/Indicator: WP2UVRA, Metabolic Activation: RAT LIVER S-9, PHENOBARBITAL AND BETA-NAPHTHOFLAVONE, Method: PREINCUBATION) was “inactive; negative”.
`COc1ccc2c3c(cccc13)OC([N+](=O)[O-])=C2` was tested, and the mutagenic call [4] was “inactive; negative”, the mutagenic call (Test System: AMES SALMONELLA TYPHIMURIUM, Strain/Indicator: TA98, Metabolic Activation: S-9, Method: STANDARD PLATE) was “inactive; negative” and the mutagenic call [2] was “active; positive”. The mutagenic call (Test System: AMES SALMONELLA TYPHIMURIUM, Strain/Indicator: TA100, Metabolic Activation: S-9, Method: STANDARD PLATE) was “inactive; negative”.
In the case of `CCCCC/C=C/C(=O)CCc1ccc(O)c(OC)c1`, the mutagenic call [4] is reported as “inactive; negative”, the mutagenic call (Test System: AMES SALMONELLA TYPHIMURIUM, Strain/Indicator: TA98, Metabolic Activation: RAT, LIVER, S-9, AROCLOR 1254, Method: STANDARD PLATE) is reported as “inactive; negative” and the mutagenic call [2] is reported as “inactive; negative”. For the same molecule, the mutagenic call [3] was “active; positive”, the mutagenic call (Test System: AMES SALMONELLA TYPHIMURIUM, Strain/Indicator: TA1535, Metabolic Activation: NONE, Method: STANDARD PLATE) was “inactive; negative” and the mutagenic call (Test System: AMES SALMONELLA TYPHIMURIUM, Strain/Indicator: TA1535, Metabolic Activation: RAT, LIVER, S-9, AROCLOR 1254, Method: STANDARD PLATE) was “active; positive”. The mutagenic call (Test System: AMES SALMONELLA TYPHIMURIUM, Strain/Indicator: TA1538, Metabolic Activation: NONE, Method: STANDARD PLATE) was “inactive; negative” and the mutagenic call (Test System: AMES SALMONELLA TYPHIMURIUM, Strain/Indicator: TA1538, Metabolic Activation: RAT, LIVER, S-9, AROCLOR 1254, Method: STANDARD PLATE) was “inactive; negative”.
For `Cc1ccccc1C1=C(C(=O)O)O1`, the mutagenic call [2] was “inactive; negative”.
With `Cn1c(N)nc2ccccc21` the mutagenic call (Test System: AMES SALMONELLA TYPHIMURIUM, Strain/Indicator: TA98, Metabolic Activation: RAT, LIVER, S-9, AROCLOR 1254, Method: PREINCUBATION) was “active; positive” and the mutagenic call (Test System: AMES SALMONELLA TYPHIMURIUM, Strain/Indicator: TA100, Metabolic Activation: RAT, LIVER, S-9, AROCLOR 1254, Method: PREINCUBATION) was “active; positive”.
In the case of `Cc1cc(=O)oc2ccc3c(c12)C1(C)OOC1(C)O3` (stereo not given), the mutagenic call [1] is reported as “active; positive”.
